Measurements taken from PubChem BioAssay AID192 (DTP/NCI, 2004).
Values joined by “and” are separate entries in the source; they are usually repeats but may differ in a detail not shown here. Equal values may be shown once. Inconclusive results and toxic doses are left out. Peptide text beside a SMILES is read from it. * marks the point of attachment. CH2Cl = ClC*

System: BDF1 mice, B16 melanoma ip, median survival T/C
Test: NCI In Vivo Anticancer Drug Screen. Data for tumor model B16 Melanoma (intraperitoneal) in B6D2F1 (BDF1) mice
Details: endpoint: median survival time, higher = longer survival
How it was run: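 Tumor-bearing mice received test compound or vehicle. Survival or tumor size was then measured in both groups. The treated-group figure was divided by the control-group figure.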

[1] = dose: 100.0 mg/kg/injection, schedule: Q01DX009 (ip), vehicle: Klucel (hydroxypropylcellulose) (HPC)
[2] = dose: 200.0 mg/kg/injection, schedule: Q01DX009 (ip), vehicle: Klucel (hydroxypropylcellulose) (HPC)
[3] = dose: 12.5 mg/kg/injection, schedule: Q01DX009 (ip), vehicle: saline with Tween-80
[4] = dose: 25.0 mg/kg/injection, schedule: Q01DX009 (ip), vehicle: saline with Tween-80
[5] = dose: 1.56 mg/kg/injection, schedule: Q01DX009 (ip), vehicle: Klucel (hydroxypropylcellulose) (HPC)
[6] = dose: 3.12 mg/kg/injection, schedule: Q01DX009 (ip), vehicle: Klucel (hydroxypropylcellulose) (HPC)
[7] = dose: 6.25 mg/kg/injection, schedule: Q01DX009 (ip), vehicle: Klucel (hydroxypropylcellulose) (HPC)
[8] = dose: 12.5 mg/kg/injection, schedule: Q01DX009 (ip), vehicle: Klucel (hydroxypropylcellulose) (HPC)
[9] = dose: 25.0 mg/kg/injection, schedule: Q01DX009 (ip), vehicle: Klucel (hydroxypropylcellulose) (HPC)
[10] = dose: 50.0 mg/kg/injection, schedule: Q01DX009 (ip), vehicle: Klucel (hydroxypropylcellulose) (HPC)

CN(C)CCCNc1cc(O)c2c(c1O)C(=O)c1ccccc1C2=O
T/C (dose: 50.0 mg/kg/injection, schedule: Q01DX009 (ip), vehicle: water): 116 % of control
T/C (dose: 100.0 mg/kg/injection, schedule: Q01DX009 (ip), vehicle: water): 107 % of control

C=CCN(C(=O)OCC)c1ccccc1
T/C [1]: 100 % of control
T/C [2]: 97 % of control

CCC(CC)COC(=O)c1ccccc1C(=O)OCC(CC)CC
T/C [3]: 87 % of control

ClC1=C(Cl)C(Cl)=C(Cl)C1=Cc1ccccc1
T/C (dose: 1.56 mg/kg/injection, schedule: Q01DX009 (ip), vehicle: saline with Tween-80): 97 % of control
T/C (dose: 3.13 mg/kg/injection, schedule: Q01DX009 (ip), vehicle: saline with Tween-80): 92 % of control
T/C (dose: 6.25 mg/kg/injection, schedule: Q01DX009 (ip), vehicle: saline with Tween-80): 102 % of control
T/C [3]: 111 % of control
T/C [4]: 95 % of control

COc1cc(C(=O)CC(O)(C(F)(F)F)C(F)(F)F)cc(OC)c1OC
T/C (dose: 50.0 mg/kg/injection, schedule: Q04DX003 (ip), vehicle: Klucel (hydroxypropylcellulose) (HPC)): 100 % of control
T/C (dose: 100.0 mg/kg/injection, schedule: Q04DX003 (ip), vehicle: Klucel (hydroxypropylcellulose) (HPC)): 110 % of control
T/C (dose: 200.0 mg/kg/injection, schedule: Q04DX003 (ip), vehicle: Klucel (hydroxypropylcellulose) (HPC)): 97 % of control

O=C1NC(=O)C([N+](=O)[O-])=C(O)C1=O
T/C (dose: 75.0 mg/kg/injection, schedule: Q04DX003 (ip), vehicle: other): 105 % of control
T/C (dose: 150.0 mg/kg/injection, schedule: Q04DX003 (ip), vehicle: other): 95 % of control

O=c1n[n+]([O-])ccn1C1OC(CO)C(O)C1O (stereo unspecified)
T/C (dose: 25.0 mg/kg/injection, schedule: Q01DX009 (ip), vehicle: saline): 92 % of control and 108 % of control
T/C (dose: 50.0 mg/kg/injection, schedule: Q01DX009 (ip), vehicle: saline): 102 % of control and 115 % of control
T/C (dose: 100.0 mg/kg/injection, schedule: Q01DX009 (ip), vehicle: saline): 115 % of control and 120 % of control
T/C (dose: 200.0 mg/kg/injection, schedule: Q01DX009 (ip), vehicle: saline): 122 % of control

CC(=O)NC(CC(C)C)C(=O)NC(Cc1ccccc1)C(=O)CCl (stereo not drawn) (Ac-Leu-Phe-CH2Cl; configuration not given here)
T/C [5]: 100 % of control
T/C [6]: 100 % of control
T/C [7]: 96 % of control and 97 % of control

O=C(Nc1ccccc1)Nc1nccs1
T/C [8]: 91 % of control
T/C [9]: 93 % of control and 113 % of control
T/C [10]: 98 % of control and 102 % of control
T/C [1]: 93 % of control and 99 % of control
T/C [2]: 94 % of control and 100 % of control

CCC(CC)(C[NH-])C[NH-].[Cl][Pt+2][Cl]
T/C (dose: 1.2 mg/kg/injection, schedule: Q01DX009 (ip), vehicle: carboxymethylcellulose (CMC)): 164 % of control
T/C (dose: 2.4 mg/kg/injection, schedule: Q01DX009 (ip), vehicle: carboxymethylcellulose (CMC)): 164 % of control

Oc1ccccc1C=NCC[N-]CCN=Cc1ccccc1O.[Cu+]
T/C (dose: 0.39 mg/kg/injection, schedule: Q01DX009 (ip), vehicle: Klucel (hydroxypropylcellulose) (HPC)): 97 % of control
T/C (dose: 0.78 mg/kg/injection, schedule: Q01DX009 (ip), vehicle: Klucel (hydroxypropylcellulose) (HPC)): 96 % of control
T/C [5]: 90 % of control

CSCCC(NC(=O)OCC1c2ccccc2-c2ccccc21)C(=O)O (stereo unspecified)
T/C [10]: 103 % of control
T/C [1]: 98 % of control
T/C [2]: 87 % of control

Cc1cc(C(=O)NNCc2ccccc2)no1
T/C [6]: 88 % of control and 98 % of control
T/C [7]: 88 % of control and 98 % of control
T/C [8]: 99 % of control
T/C [9]: 90 % of control and 92 % of control and 102 % of control
T/C [10]: 90 % of control

CC1(C)N=C(N)N=C(N)N1c1ccc(CCC(=O)Nc2ccc(S(=O)(=O)F)cc2)c(Cl)c1
T/C (dose: 6.25 mg/kg/injection, schedule: Q01DX009 (ip), vehicle: saline): 104 % of control
T/C (dose: 12.5 mg/kg/injection, schedule: Q01DX009 (ip), vehicle: saline): 108 % of control

BrC[P+](CBr)(CBr)CBr
T/C [3]: 100 % of control
T/C [4]: 105 % of control
T/C (dose: 50.0 mg/kg/injection, schedule: Q01DX009 (ip), vehicle: saline with Tween-80): 104 % of control
T/C (dose: 100.0 mg/kg/injection, schedule: Q01DX009 (ip), vehicle: saline with Tween-80): 89 % of control
